Data set [1] concerns Haemonchus contortus. The data set is described as follows: Anthelmintic activity against Haemonchus contortus L1 to L3 stage assessed as larvae development incubated for 4 days. Type of data set: functional, organism-based. The following applies: 96 h.
A short description of data set [2]: Cytotoxicity against human SW620 cells incubated for 24 hrs by MTT assay. Type of data set: toxicity, cell-based, SW-620. A general note: Formazan colour is commonly taken as a measure of viable cells.
Data set [3] is described as follows: Cytotoxicity against human NCI-H460 cells incubated for 24 hrs by MTT assay. The data set is classed as toxicity, cell-based.
For data set [4], the system named is Escherichia coli. Nature of the data set: Antibacterial activity against Escherichia coli ATCC 11775 assessed as inhibition of bacterial growth incubated for 24 hrs by spectrophotometer based analysis. Type of data set: functional, organism-based. The following applies: ATCC 11775, 24 h.
Data set [5] relates to Candida albicans. Nature of the data set: Antifungal activity against Candida albicans ATCC 10231 assessed as inhibition of fungal growth incubated for 48 hrs by spectrophotometer based analysis. The data set is classed as functional, organism-based. The conditions noted are these: ATCC 10231, 48 h.
Data set [6] concerns Staphylococcus aureus. The data set is described as follows: Antibacterial activity against Staphylococcus aureus ATCC 25923 assessed as inhibition of bacterial growth incubated for 24 hrs by spectrophotometer based analysis. The data set is classed as functional, organism-based. The conditions noted are these: ATCC 25923, 24 h.
In data set [7] the test system is Dirofilaria immitis. Nature of the data set: Anthelmintic activity against Dirofilaria immitis microfilaria stage assessed as inhibition of motility incubated for approximately 72 hrs. Type of data set: functional, organism-based.
For data set [8], the system named is Dirofilaria immitis. Nature of the data set: Anthelmintic activity against Dirofilaria immitis L4 stage assessed as inhibition of motility incubated for approximately 72 hrs. Type of data set: functional, organism-based.

The structures appear in SMILES notation. Peptide text beside a SMILES is read from it. * marks the point of attachment. NHCH2CH2OH = OCCN*; For = O=C*

As to `CC[C@H](C)[C@H]1O[C@]2(CC[C@@H]1C)C[C@@H]1C[C@@H](C/C=C(\C)[C@@H](O[C@H]3C[C@H](OC)[C@@H](O[C@H]4C[C@H](OC)[C@@H](O)[C@H](C)O4)[C@H](C)O3)[C@@H](C)/C=C/C=C3\CO[C@@H]4[C@H](O)C(C)=C[C@@H](C(=O)O1)[C@]34O)O2`, the EC50 in data set [1] is 0.001 µM.

With `CC1=C2O[C@]3(O)C(N)=C2C(=C(O)C1=O)[C@@H]1O[C@@H](CC[C@H](C)/C=C(\C)C[C@@H](C)C[C@@H]3C)[C@H](C)[C@H](O)[C@@H]1C`, the IC50 at 24 h in data set [2] and in data set [3] was over 30 µM each time. In addition, the results for the IC50 in data set [4], in data set [5] and in data set [6] were over 30 µM, over 30 µM and at least 3.6 µM, respectively. Further, the concentration giving a half-maximal response (EC50) in data set [7] was 0.5 µM; in data set [8], 5 µM; in data set [1] it was 24 µM.

With `CSC1=C2C3=C(C)C(=O)C(O)=C2[C@@H]2O[C@@H](CC[C@H](C)/C=C(\C)C[C@@H](C)C[C@H](C)[C@]1(O)O3)[C@H](C)[C@H](O)[C@@H]2C`, the IC50 at 24 h in data set [2] amounted to 2.4 µM; in data set [3], 13.5 µM. The half-maximal inhibitory concentration (IC50) in data set [4] was over 30 µM; in data set [5], over 30 µM; in data set [6], at least 3.6 µM. Further, the EC50 in data set [7] was determined as 0.3 µM; in data set [8], 1.4 µM; in data set [1], 30 µM.

For the compound `C/C1=C\[C@@H](C)CC[C@@H]2O[C@@H](c3c(O)c(O)c(C)c4c3C(=O)[C@@](O)(O4)[C@@H](C)C[C@H](C)C1)[C@@H](C)[C@@H](O)[C@H]2C`, the IC50 at 24 h in data set [2] and in data set [3] was over 30 µM each time. Further, the IC50 in data set [4] was over 30 µM; in data set [5] it was over 30 µM; in data set [6], at least 3.6 µM. The concentration for a half-maximal effect (EC50) worked out at 1.3 µM in data set [7], 24 µM in data set [8] and 50 µM in data set [1].

Take `CC1=c2oc3c(O)c2=C(C(=O)C1=O)[C@@H]1O[C@@H](CC[C@H](C)/C=C(\C)C[C@@H](C)C[C@@H]3C)[C@H](C)[C@H](O)[C@@H]1C`: the IC50 at 24 h in data set [2] and in data set [3] was over 30 µM each time. For the same compound, the half-maximal inhibitory concentration (IC50) in data set [4] is over 30 µM; in data set [5] it was over 30 µM; in data set [6], at least 3.6 µM. Further, the half-maximal effective concentration (EC50) in data set [7] is 0.2 µM; in data set [8] it was 1.8 µM; in data set [1], 43 µM.

Consider `CC1=C2O[C@]3(O)C=C2C(=C(O)C1=O)[C@@H]1O[C@@H](CC[C@H](C)/C=C(\C)C[C@@H](C)C[C@@H]3C)[C@H](C)[C@H](O)[C@@H]1C`, for which the concentration for half-maximal inhibition (IC50) at 24 h in data set [2] and in data set [3] was over 30 µM each time. The IC50 in data set [4] was over 30 µM; in data set [5], over 30 µM; in data set [6], at least 3.6 µM. In addition, the EC50 worked out at 4.1 µM in data set [7], 18 µM in data set [8] and 49 µM in data set [1].

On to `CC[C@]1([C@H]2O[C@H]([C@@H]3O[C@](O)(CO)[C@@H](C)C[C@H]3C)C[C@H]2C)CC[C@@H]([C@@]2(C)CC[C@@]3(C[C@@H](O)[C@H](C)[C@H]([C@H](C)[C@H](OC)[C@H](C)C(=O)O)O3)O2)O1`, for which the 50% effective concentration (EC50) in data set [8] worked out at 0.4 µM.

On to `CC1=C(O)C(=O)c2c3sc(c2C1=O)C(=O)[C@@H](C)C[C@H](C)C/C(C)=C/[C@@H](C)CC[C@@H](O)[C@H](C)[C@H](O)[C@@H]3C`, for which the IC50 at 24 h in data set [2] and in data set [3] was over 30 µM throughout. The concentration for half-maximal inhibition (IC50) in data set [4] is over 30 µM; in data set [5], over 30 µM; in data set [6], at least 3.6 µM. The 50% effective concentration (EC50) in data set [7] came to 2.1 µM; in data set [8] it was 19 µM; in data set [1], 47 µM.

For `CC1=C(O)C(=O)C2=C(C1=O)[C@H](S(=O)(=O)O)C(=O)[C@@H](C)C[C@H](C)C/C(C)=C/[C@@H](C)CC[C@@H]1O[C@@H]2[C@@H](C)[C@@H](O)[C@H]1C`, the IC50 at 24 h in data set [2] and in data set [3] was over 30 µM throughout. The half-maximal inhibitory concentration (IC50) is over 30 µM in data set [4], over 30 µM in data set [5] and at least 3.6 µM in data set [6]. For the same compound, the figures for the EC50 in data set [7], in data set [8] and in data set [1] were 21 µM, 44 µM and 44 µM, respectively.

Consider `CC(=O)N[C@@H](CSC1=C2C3=C(C)C(=O)C(O)=C2[C@@H]2O[C@@H](CC[C@H](C)/C=C(\C)C[C@@H](C)C[C@H](C)[C@]1(O)O3)[C@H](C)[C@H](O)[C@@H]2C)C(=O)O`, for which the IC50 at 24 h in data set [2] and in data set [3] was over 30 µM each time. In addition, the figures for the IC50 in data set [4], in data set [5] and in data set [6] were over 30 µM, over 30 µM and at least 3.6 µM, respectively. Further, the figures for the 50% effective concentration (EC50) in data set [7], in data set [8] and in data set [1] were 3.6 µM, 22 µM and 39 µM, respectively.

As to `CC(C)C[C@H](NC(=O)[C@H](C)NC(=O)CNC(=O)[C@@H](NC=O)C(C)C)C(=O)N[C@@H](C)C(=O)N[C@H](C(=O)N[C@H](C(=O)N[C@H](C(=O)N[C@@H](Cc1c[nH]c2ccccc12)C(=O)N[C@@H](CC(C)C)C(=O)N[C@@H](Cc1c[nH]c2ccccc12)C(=O)N[C@@H](CC(C)C)C(=O)N[C@@H](Cc1c[nH]c2ccccc12)C(=O)N[C@@H](CC(C)C)C(=O)N[C@@H](Cc1c[nH]c2ccccc12)C(=O)NCCO)C(C)C)C(C)C)C(C)C` (For-VGALAVVVWLWLWLW-NHCH2CH2OH), the half-maximal effective concentration (EC50) in data set [7] is 0.1 µM.

The term EC50 denotes the concentration that produces a half-maximal response. Usually IC50 stands for the concentration that inhibits the measured activity by half.

For the origin of these results see ChEMBL document CHEMBL6078660, “Goondomycins A-H: Carbocyclic ansa-Polyketides from an Australian Pasture Streptomyces with Selective Activity against Dirofilaria immitis” (J Nat Prod, 2024).
